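Each compound was tested at five concentrations against cells in 96-well plates for 48 hours. Abbreviation: GI50, concentration required for 50% inhibition of growth. TGI denotes the concentration required for complete inhibition of growth.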
Legend:
Assay in all cases: NCI tumour cell line growth inhibition, 48 h
NCI-H23 lung = test system: NCI-H23 lung
COLO 205 colon = test system: COLO 205 colon
SW-620 colon = test system: SW-620 colon
SF-539 CNS = test system: SF-539 CNS
NCI-H522 lung = test system: NCI-H522 lung
MDA-MB-231 breast = test system: MDA-MB-231 breast
SK-OV-3 ovarian = test system: SK-OV-3 ovarian
DU-145 prostate = test system: DU-145 prostate
OVCAR-4 ovarian = test system: OVCAR-4 ovarian
HT29 colon = test system: HT29 colon
RPMI-8226 leukemia = test system: RPMI-8226 leukemia
MCF7 breast = test system: MCF7 breast
SF-268 CNS = test system: SF-268 CNS
CCRF-CEM leukemia = test system: CCRF-CEM leukemia
HCT-15 colon = test system: HCT-15 colon
A549 NSCLC = test system: A549 NSCLC
MALME-3M melanoma = test system: MALME-3M melanoma
K-562 leukemia = test system: K-562 leukemia
IGROV1 ovarian = test system: IGROV1 ovarian
SK-MEL-5 melanoma = test system: SK-MEL-5 melanoma
SN12C renal = test system: SN12C renal
UACC-257 melanoma = test system: UACC-257 melanoma
HL-60(TB) leukemia = test system: HL-60(TB) leukemia
RXF 393 renal = test system: RXF 393 renal
LOX IMVI melanoma = test system: LOX IMVI melanoma
SK-MEL-2 melanoma = test system: SK-MEL-2 melanoma
UO-31 renal = test system: UO-31 renal
HS 578T breast = test system: HS 578T breast
T-47D breast = test system: T-47D breast
OVCAR-5 ovarian = test system: OVCAR-5 ovarian
TK-10 renal = test system: TK-10 renal
MDA-MB-435 = test system: MDA-MB-435
HCC-2998 colon = test system: HCC-2998 colon
BT-549 breast = test system: BT-549 breast
U251 CNS = test system: U251 CNS
UACC-62 melanoma = test system: UACC-62 melanoma
EKVX NSCLC = test system: EKVX NSCLC
HOP-92 NSCLC = test system: HOP-92 NSCLC
SNB-75 CNS = test system: SNB-75 CNS
CAKI-1 renal = test system: CAKI-1 renal
786-0 renal = test system: 786-0 renal
ACHN renal = test system: ACHN renal
HOP-62 NSCLC = test system: HOP-62 NSCLC
PC-3 prostate = test system: PC-3 prostate
SK-MEL-28 melanoma = test system: SK-MEL-28 melanoma
NCI-H226 lung = test system: NCI-H226 lung
NCI-H460 lung = test system: NCI-H460 lung
HCT-116 colon = test system: HCT-116 colon
OVCAR-8 ovarian = test system: OVCAR-8 ovarian
OVCAR-3 ovarian = test system: OVCAR-3 ovarian
A498 renal = test system: A498 renal
SF-295 CNS = test system: SF-295 CNS
SNB-19 CNS = test system: SNB-19 CNS
KM12 colon = test system: KM12 colon
NCI/ADR-RES ovarian = test system: NCI/ADR-RES ovarian
M14 melanoma = test system: M14 melanoma

Structure (SMILES): O=c1[nH]cnc2c(C3OC(CO)C(O)C3O)scc12 (configuration not stated)
- GI50 (NCI-H23 lung): > 100 µM
- TGI (NCI-H23 lung): > 100 µM
- GI50 (COLO 205 colon): > 100 µM
- TGI (COLO 205 colon): > 100 µM
- GI50 (SW-620 colon): 99.9 µM
- TGI (SW-620 colon): > 100 µM
- GI50 (SF-539 CNS): > 100 µM
- TGI (SF-539 CNS): > 100 µM
- GI50 (NCI-H522 lung): > 100 µM
- TGI (NCI-H522 lung): > 100 µM
- GI50 (MDA-MB-231 breast): 37.5 µM
- TGI (MDA-MB-231 breast): > 100 µM
- GI50 (SK-OV-3 ovarian): > 100 µM
- TGI (SK-OV-3 ovarian): > 100 µM
- GI50 (DU-145 prostate): 5.47 µM
- TGI (DU-145 prostate): > 100 µM
- GI50 (OVCAR-4 ovarian): > 100 µM
- TGI (OVCAR-4 ovarian): > 100 µM
- GI50 (HT29 colon): > 100 µM
- TGI (HT29 colon): > 100 µM
- GI50 (RPMI-8226 leukemia): 26.9 µM
- TGI (RPMI-8226 leukemia): > 100 µM
- GI50 (MCF7 breast): 50.1 µM
- TGI (MCF7 breast): > 100 µM
- GI50 (SF-268 CNS): > 100 µM
- TGI (SF-268 CNS): > 100 µM
- GI50 (CCRF-CEM leukemia): 0.271 µM
- TGI (CCRF-CEM leukemia): 1.16 µM
- GI50 (HCT-15 colon): 60 µM
- TGI (HCT-15 colon): > 100 µM
- GI50 (A549 NSCLC): > 100 µM
- TGI (A549 NSCLC): > 100 µM
- GI50 (MALME-3M melanoma): 13.8 µM
- TGI (MALME-3M melanoma): > 100 µM
- GI50 (K-562 leukemia): 31.5 µM
- TGI (K-562 leukemia): > 100 µM
- GI50 (IGROV1 ovarian): 73.5 µM
- TGI (IGROV1 ovarian): > 100 µM
- GI50 (SK-MEL-5 melanoma): > 100 µM
- TGI (SK-MEL-5 melanoma): > 100 µM
- GI50 (SN12C renal): > 100 µM
- TGI (SN12C renal): > 100 µM
- GI50 (UACC-257 melanoma): > 100 µM
- TGI (UACC-257 melanoma): > 100 µM
- GI50 (HL-60(TB) leukemia): 19.6 µM
- TGI (HL-60(TB) leukemia): > 100 µM
- GI50 (RXF 393 renal): > 100 µM
- TGI (RXF 393 renal): > 100 µM
- GI50 (LOX IMVI melanoma): 43.9 µM
- TGI (LOX IMVI melanoma): > 100 µM
- GI50 (SK-MEL-2 melanoma): 44.8 µM
- TGI (SK-MEL-2 melanoma): > 100 µM
- GI50 (UO-31 renal): 51.4 µM
- TGI (UO-31 renal): > 100 µM
- GI50 (HS 578T breast): > 100 µM
- TGI (HS 578T breast): > 100 µM
- GI50 (T-47D breast): > 100 µM
- TGI (T-47D breast): > 100 µM
- GI50 (OVCAR-5 ovarian): > 100 µM
- TGI (OVCAR-5 ovarian): > 100 µM
- GI50 (TK-10 renal): 11.6 µM
- TGI (TK-10 renal): > 100 µM
- GI50 (MDA-MB-435): > 100 µM
- TGI (MDA-MB-435): > 100 µM
- GI50 (HCC-2998 colon): 32.3 µM
- TGI (HCC-2998 colon): > 100 µM
- GI50 (BT-549 breast): > 100 µM
- TGI (BT-549 breast): > 100 µM
- GI50 (U251 CNS): > 100 µM
- TGI (U251 CNS): > 100 µM
- GI50 (UACC-62 melanoma): > 100 µM
- TGI (UACC-62 melanoma): > 100 µM
- GI50 (EKVX NSCLC): > 100 µM
- TGI (EKVX NSCLC): > 100 µM
- GI50 (HOP-92 NSCLC): 5.03 µM
- TGI (HOP-92 NSCLC): > 100 µM
- GI50 (SNB-75 CNS): > 100 µM
- TGI (SNB-75 CNS): > 100 µM
- GI50 (CAKI-1 renal): 77.9 µM
- TGI (CAKI-1 renal): > 100 µM
- GI50 (786-0 renal): > 100 µM
- TGI (786-0 renal): > 100 µM
- GI50 (ACHN renal): 49.1 µM
- TGI (ACHN renal): > 100 µM
- GI50 (HOP-62 NSCLC): 46.9 µM
- TGI (HOP-62 NSCLC): > 100 µM
- GI50 (PC-3 prostate): 37.9 µM
- TGI (PC-3 prostate): > 100 µM
- GI50 (SK-MEL-28 melanoma): > 100 µM
- TGI (SK-MEL-28 melanoma): > 100 µM
- GI50 (NCI-H226 lung): > 100 µM
- TGI (NCI-H226 lung): > 100 µM
- GI50 (NCI-H460 lung): 74 µM
- TGI (NCI-H460 lung): > 100 µM
- GI50 (HCT-116 colon): > 100 µM
- TGI (HCT-116 colon): > 100 µM
- GI50 (OVCAR-8 ovarian): 54.8 µM
- TGI (OVCAR-8 ovarian): > 100 µM
- GI50 (OVCAR-3 ovarian): > 100 µM
- TGI (OVCAR-3 ovarian): > 100 µM
- GI50 (A498 renal): > 100 µM
- TGI (A498 renal): > 100 µM
- GI50 (SF-295 CNS): > 100 µM
- TGI (SF-295 CNS): > 100 µM
- GI50 (SNB-19 CNS): > 100 µM
- TGI (SNB-19 CNS): > 100 µM
- GI50 (KM12 colon): > 100 µM
- TGI (KM12 colon): > 100 µM
- GI50 (NCI/ADR-RES ovarian): 44.5 µM
- TGI (NCI/ADR-RES ovarian): > 100 µM
- GI50 (M14 melanoma): 56.5 µM
- TGI (M14 melanoma): > 100 µM

Reference: PubChem BioAssay (NCI)
